Consider 20 molecules from patent publication US20230117034A1, “PYRAZOLOTRIAZINES” (Bayer Aktiengesellschaft, priority 2019, published 2023).

For one experiment, the target named is CDK12/CycK (Homo sapiens, UniProt Q9NYV4). Put plainly: CDK12/CycK high ATP kinase assay (TR-FRET, 2 mM ATP). The experiment is classed as biochemical. To be noted: 2 mM ATP (high ATP); median; read-out: CDK12/CyclinK, 2 mM ATP (high ATP), IC50-[mol/l] (median). Summed up:
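His-tagged human CDK12/CycK (~0.75 nM) pre-incubated 15 min with compound, then 60 min at 22 °C with 2 mM ATP and 1 µM biotinylated peptide (HEPES pH 7.5, 20 mM MgCl2). EDTA stop; phospho-Ser62 antibody/Eu anti-rabbit and streptavidin-XL665 TR-FRET, 665/620 nm ratio normalised to give IC50.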
For orientation: Time-resolved FRET reads energy transfer from a long-lived donor to a nearby acceptor.

Experiment [1] relates to CAL-120, human breast adenocarcinoma cells. The experiment can be described thus: Proliferation assay CAL-120 (crystal violet, 4 days). The experiment is classed as cell-based. Particulars: Homo sapiens, CAL-120, 96 h, CAL-120 cells, median, read-out: Prolif-CAL-120, IC50-[mol/l] (median). An outline of the steps:
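Following a 24 h attachment in 10% fetal calf serum medium, cells receive test substance over 0.01-10 µmol/L for 4 days. Dye retained by fixed cells is eluted and read at 595 nm; cell number change is referenced to day-0 and untreated wells.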

Experiment [2] has as its target T1, CDK12 (nuclear staining in CAL-120 cells) (Homo sapiens, UniProt Q9NYV4).
T1 construct: endogenous in cells; host or cells: CAL-120 human breast cancer cells (DSMZ ACC 459)
Put plainly: CDK12 nuclear protein level: immunofluorescence/high content analysis (CAL-120). The experiment is classed as cell-based. To be noted: for DC50: CAL-120 cells, 24 h, immunofluorescence, 50% reduction of nuclear CDK12 staining intensity, median, read-out: CDK12 degradation IF, DC50- [mol/l] (median); for (IC50 CDK12 high ATP) to (Degradation DC50 CDK12) ratio: ratio of IC50 CDK12 high ATP kinase assay to DC50 CDK12 degradation (IF, CAL-120). An outline of the steps:
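CAL-120 cells were treated with compound for 24 h at 37 °C, fixed with PFA and immunostained for CDK12. Nuclear CDK12 intensity was quantified by automated image analysis and normalized to DMSO and control. DC50 is the concentration giving 50% reduction of nuclear staining.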

Molecules are shown by their SMILES. Some results are limits rather than exact numbers.

Sequence of CDK12/CycK (Q9NYV4 with tags, fused parts or gaps): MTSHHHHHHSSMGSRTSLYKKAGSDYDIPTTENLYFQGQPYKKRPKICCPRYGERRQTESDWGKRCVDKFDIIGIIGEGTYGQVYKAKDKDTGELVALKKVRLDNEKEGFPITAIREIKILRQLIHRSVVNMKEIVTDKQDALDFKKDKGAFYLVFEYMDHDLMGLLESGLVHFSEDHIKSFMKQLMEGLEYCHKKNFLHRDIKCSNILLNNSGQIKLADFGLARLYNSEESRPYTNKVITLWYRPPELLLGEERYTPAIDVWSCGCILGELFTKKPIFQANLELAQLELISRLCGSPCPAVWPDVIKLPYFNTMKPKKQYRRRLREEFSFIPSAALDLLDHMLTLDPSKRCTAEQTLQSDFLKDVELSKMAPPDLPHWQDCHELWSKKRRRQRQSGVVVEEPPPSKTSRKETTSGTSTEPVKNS
Sequence of CDK12/CycK (O75909 1-300 partner limits assumed): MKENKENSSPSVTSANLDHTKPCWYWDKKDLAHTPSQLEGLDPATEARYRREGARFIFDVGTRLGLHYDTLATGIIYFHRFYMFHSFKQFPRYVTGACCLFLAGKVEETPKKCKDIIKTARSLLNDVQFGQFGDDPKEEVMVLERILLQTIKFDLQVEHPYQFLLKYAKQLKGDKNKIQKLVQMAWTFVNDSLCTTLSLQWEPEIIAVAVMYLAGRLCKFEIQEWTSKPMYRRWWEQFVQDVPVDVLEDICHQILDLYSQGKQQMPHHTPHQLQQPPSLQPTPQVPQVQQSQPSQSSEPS
T1 sequence (Q9NYV4 whole entry): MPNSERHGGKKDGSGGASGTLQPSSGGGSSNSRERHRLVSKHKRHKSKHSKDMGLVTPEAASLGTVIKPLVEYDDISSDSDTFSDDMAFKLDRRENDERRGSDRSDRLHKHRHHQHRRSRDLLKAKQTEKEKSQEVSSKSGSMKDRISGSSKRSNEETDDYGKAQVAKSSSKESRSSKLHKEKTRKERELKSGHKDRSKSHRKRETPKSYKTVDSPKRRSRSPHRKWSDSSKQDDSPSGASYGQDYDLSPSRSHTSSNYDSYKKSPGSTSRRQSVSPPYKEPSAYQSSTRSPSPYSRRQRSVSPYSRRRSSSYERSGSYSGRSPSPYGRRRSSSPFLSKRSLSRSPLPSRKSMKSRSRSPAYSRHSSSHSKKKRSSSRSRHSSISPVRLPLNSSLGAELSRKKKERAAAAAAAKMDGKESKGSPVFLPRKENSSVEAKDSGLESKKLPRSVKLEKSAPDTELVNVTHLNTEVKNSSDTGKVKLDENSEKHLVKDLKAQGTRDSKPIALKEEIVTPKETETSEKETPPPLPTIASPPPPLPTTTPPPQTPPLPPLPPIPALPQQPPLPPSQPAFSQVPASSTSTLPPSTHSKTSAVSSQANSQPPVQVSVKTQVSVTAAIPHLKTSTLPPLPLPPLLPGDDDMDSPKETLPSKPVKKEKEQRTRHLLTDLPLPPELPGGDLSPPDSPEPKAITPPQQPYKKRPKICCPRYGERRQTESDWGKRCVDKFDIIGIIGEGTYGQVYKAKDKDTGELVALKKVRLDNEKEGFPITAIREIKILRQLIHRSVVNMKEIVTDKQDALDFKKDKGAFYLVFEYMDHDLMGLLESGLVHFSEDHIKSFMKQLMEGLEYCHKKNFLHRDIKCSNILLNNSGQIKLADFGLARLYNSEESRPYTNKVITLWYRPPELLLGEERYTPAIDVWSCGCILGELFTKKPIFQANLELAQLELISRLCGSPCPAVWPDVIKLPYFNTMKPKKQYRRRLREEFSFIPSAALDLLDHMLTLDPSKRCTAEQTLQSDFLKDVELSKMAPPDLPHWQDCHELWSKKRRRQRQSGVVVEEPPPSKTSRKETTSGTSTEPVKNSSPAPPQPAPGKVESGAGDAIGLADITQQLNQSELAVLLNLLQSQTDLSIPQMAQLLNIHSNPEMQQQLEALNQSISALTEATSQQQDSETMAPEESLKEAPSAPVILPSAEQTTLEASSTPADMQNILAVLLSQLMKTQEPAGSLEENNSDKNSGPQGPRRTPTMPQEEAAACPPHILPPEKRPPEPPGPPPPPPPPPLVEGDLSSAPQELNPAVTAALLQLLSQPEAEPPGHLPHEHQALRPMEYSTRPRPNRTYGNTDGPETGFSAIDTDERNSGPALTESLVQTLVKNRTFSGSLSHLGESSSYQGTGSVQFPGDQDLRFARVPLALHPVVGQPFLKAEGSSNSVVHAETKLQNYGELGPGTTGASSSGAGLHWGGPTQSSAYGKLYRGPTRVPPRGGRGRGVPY
T1 sequence (O75909 whole entry partner): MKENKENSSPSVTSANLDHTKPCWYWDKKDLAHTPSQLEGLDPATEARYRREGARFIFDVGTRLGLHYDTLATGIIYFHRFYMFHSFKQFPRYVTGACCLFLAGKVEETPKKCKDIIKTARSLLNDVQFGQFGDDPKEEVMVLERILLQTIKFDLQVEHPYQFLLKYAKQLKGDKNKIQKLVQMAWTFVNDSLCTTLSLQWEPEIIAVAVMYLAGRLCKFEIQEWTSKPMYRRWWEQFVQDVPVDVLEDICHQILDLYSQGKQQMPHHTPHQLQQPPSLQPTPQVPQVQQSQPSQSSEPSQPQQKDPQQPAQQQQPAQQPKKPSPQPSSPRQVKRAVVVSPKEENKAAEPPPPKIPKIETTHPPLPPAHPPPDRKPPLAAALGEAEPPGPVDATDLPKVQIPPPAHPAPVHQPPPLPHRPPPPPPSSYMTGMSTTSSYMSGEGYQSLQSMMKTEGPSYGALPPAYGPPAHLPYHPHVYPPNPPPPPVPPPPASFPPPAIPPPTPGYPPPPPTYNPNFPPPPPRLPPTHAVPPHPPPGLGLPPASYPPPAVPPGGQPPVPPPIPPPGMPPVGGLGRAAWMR

Consider `CC1(C)CN(c2nc(NCc3nc4ccccc4[nH]3)n3ncc(Br)c3n2)CCO1` [Example 58, N-[(1H-benzimidazol-2-yl)methyl]-8-bromo-2-(2,2-dimethylmorpholin-4-yl)pyrazolo[1,5-a][1,3,5]triazin-4-amine], for which the IC50 on CDK12/CycK was 6440 nM. Besides, the IC50 in experiment [1] was 56.3 nM. For the same molecule, in experiment [2], the DC50 stood at 26.1 nM and the “(IC50 CDK12 high ATP) to (Degradation DC50 CDK12) ratio” value was 246.
In the same order, the values of `Brc1cnn2c(NCc3nnc(-c4ccccc4)[nH]3)nc(N3CCCCC3)nc12` [Example 49, 8-bromo-N-[(5-phenyl-4H-1,2,4-triazol-3-yl)methyl]-2-(piperidin-1-yl)pyrazolo[1,5-a][1,3,5]triazin-4-amine] are 6120 nM, 44 nM, 41.7 nM and 147.
Regarding `N#Cc1cnn2c(NCc3nc4ccccc4[nH]3)nc(N3CCOCC3)nc12` [Example 43, 4-{[(1H-benzimidazol-2-yl)methyl]amino}-2-(morpholin-4-yl)pyrazolo[1,5-a][1,3,5]triazine-8-carbonitrile], the IC50 at CDK12/CycK is above 16800 nM. Moreover, the IC50 in experiment [1] was 131 nM. In experiment [2], the DC50 stood at 9.58 nM and the “(IC50 CDK12 high ATP) to (Degradation DC50 CDK12) ratio” value is given as above 1754.
For `Brc1cnn2c(NCc3nc4ccccc4[nH]3)nc(N3CCCCC3)nc12` [Example 46, N-[(1H-benzimidazol-2-yl)methyl]-8-bromo-2-(piperidin-1-yl)pyrazolo[1,5-a][1,3,5]triazin-4-amine], the IC50 at CDK12/CycK worked out at 3330 nM. For the same molecule, in experiment [1], the IC50 was found to be 238 nM. In experiment [2], the DC50 worked out at 18 nM and the “(IC50 CDK12 high ATP) to (Degradation DC50 CDK12) ratio” value was 186.
On to `CC(C)c1cnn2c(NCc3ncc(-c4ccccc4)[nH]3)nc(N(C)CC(C)(C)O)nc12` [Example 35, 2-methyl-1-{methyl[4-{[(5-phenyl-1H-imidazol-2-yl)methyl]amino}-8-(propan-2-yl)pyrazolo[1,5-a][1,3,5]triazin-2-yl]amino}propan-2-ol], for which the IC50 on CDK12/CycK came out at 2210 nM. Besides, in experiment [2], the DC50 was 27.3 nM and the “(IC50 CDK12 high ATP) to (Degradation DC50 CDK12) ratio” value was determined as 81.
In the same order, the values of `CCNc1nc(NCc2nnc(-c3ccccc3)[nH]2)n2ncc(C(C)C)c2n1` [Example 38, N^2-ethyl-N^4-[(5-phenyl-4H-1,2,4-triazol-3-yl)methyl]-8-(propan-2-yl)pyrazolo[1,5-a][1,3,5]triazine-2,4-diamine] are above 5710 nM, 37.2 nM and above 153.
`Brc1cnn2c(NCc3nc4ccccc4[nH]3)nc(N3CC4(COC4)C3)nc12` [Example 48, N-[(1H-benzimidazol-2-yl)methyl]-8-bromo-2-(2-oxa-6-azaspiro[3.3]heptan-6-yl)pyrazolo[1,5-a][1,3,5]triazin-4-amine]: the IC50 at CDK12/CycK was above 5710 nM. For the same molecule, in experiment [1], the IC50 is 120 nM. Further, in experiment [2], the DC50 was 20.7 nM and the “(IC50 CDK12 high ATP) to (Degradation DC50 CDK12) ratio” value is recorded as above 276.
In the same order, the values of `C[C@H]1COCCN1c1nc(NCc2nc3ccccc3[nH]2)n2ncc(Br)c2n1` [Example 57, N-[(1H-benzimidazol-2-yl)methyl]-8-bromo-2-[(3S)-3-methylmorpholin-4-yl]pyrazolo[1,5-a][1,3,5]triazin-4-amine] are 1040 nM, 3.14 nM, 1.55 nM and 669.
Regarding `Fc1cccc(-c2nnc(CNc3nc(N4CCOCC4)nc4c(Br)cnn34)[nH]2)c1` [Example 44, 8-bromo-N-{[5-(3-fluorophenyl)-4H-1,2,4-triazol-3-yl]methyl}-2-(morpholin-4-yl)pyrazolo[1,5-a][1,3,5]triazin-4-amine], the IC50 at CDK12/CycK was determined as 1340 nM. Also, in experiment [1], the IC50 was found to be 1.46 nM. Also, in experiment [2], the DC50 was found to be 1.71 nM and the “(IC50 CDK12 high ATP) to (Degradation DC50 CDK12) ratio” value is recorded as 871.
For `Cc1cccc(-c2nnc(CNc3nc(N4CCOCC4)nc4c(Br)cnn34)[nH]2)c1` [Example 40, 8-bromo-N-{[5-(3-methylphenyl)-4H-1,2,4-triazol-3-yl]methyl}-2-(morpholin-4-yl)pyrazolo[1,5-a][1,3,5]triazin-4-amine], the IC50 at CDK12/CycK was 2440 nM; in experiment [1], 23.1 nM. Further, the DC50 in experiment [2] stood at 4.58 nM. Moreover, the “(IC50 CDK12 high ATP) to (Degradation DC50 CDK12) ratio” value in experiment [2] came to 532.
Take `Brc1cnn2c(NCc3nnc(-c4cccnc4)[nH]3)nc(N3CCOCC3)nc12` [Example 53, 8-bromo-2-(morpholin-4-yl)-N-{[5-(pyridin-3-yl)-4H-1,2,4-triazol-3-yl]methyl}pyrazolo[1,5-a][1,3,5]triazin-4-amine]: at CDK12/CycK, the IC50 was determined as 2030 nM. For the same molecule, the IC50 in experiment [1] is 106 nM. Also, in experiment [2], the DC50 worked out at 47.2 nM and the “(IC50 CDK12 high ATP) to (Degradation DC50 CDK12) ratio” value is reported as 43.
Regarding `CC(C)c1cnn2c(NCc3nnc(-c4ccccc4)[nH]3)nc(N(C)CC(C)(C)O)nc12` [Example 39, 2-methyl-1-{methyl[4-{[(5-phenyl-4H-1,2,4-triazol-3-yl)methyl]amino}-8-(propan-2-yl)pyrazolo[1,5-a][1,3,5]triazin-2-yl]amino}propan-2-ol], the IC50 at CDK12/CycK is 4670 nM. Also, in experiment [2], the DC50 was 41.4 nM and the “(IC50 CDK12 high ATP) to (Degradation DC50 CDK12) ratio” value is listed as 113.
Take `COc1cccc(-c2nnc(CNc3nc(N4CCOCC4)nc4c(Br)cnn34)[nH]2)c1` [Example 50, 8-bromo-N-{[5-(3-methoxyphenyl)-4H-1,2,4-triazol-3-yl]methyl}-2-(morpholin-4-yl)pyrazolo[1,5-a][1,3,5]triazin-4-amine]: at CDK12/CycK, the IC50 was 2800 nM. In addition, in experiment [1], the IC50 came to 29.5 nM. Moreover, in experiment [2], the DC50 was found to be 12.5 nM and the “(IC50 CDK12 high ATP) to (Degradation DC50 CDK12) ratio” value is listed as 224.
In the same order, the values of `C[C@@H]1COCCN1c1nc(NCc2nc3ccccc3[nH]2)n2ncc(Br)c2n1` [Example 56, N-[(1H-benzimidazol-2-yl)methyl]-8-bromo-2-[(3R)-3-methylmorpholin-4-yl]pyrazolo[1,5-a][1,3,5]triazin-4-amine] are 5310 nM, 17.3 nM, 15.1 nM and 352.
Consider `Clc1ccc(-c2nnc(CNc3nc(N4CCOCC4)nc4c(Br)cnn34)[nH]2)cc1` [Example 45, 8-bromo-N-{[5-(4-chlorophenyl)-4H-1,2,4-triazol-3-yl]methyl}-2-(morpholin-4-yl)pyrazolo[1,5-a][1,3,5]triazin-4-amine], for which the IC50 at CDK12/CycK came to 2200 nM. Also, the IC50 in experiment [1] was 89.1 nM. Besides, in experiment [2], the DC50 was 69.2 nM and the “(IC50 CDK12 high ATP) to (Degradation DC50 CDK12) ratio” value worked out at 32.
As for `Clc1cccc(-c2nnc(CNc3nc(N4CCOCC4)nc4c(Br)cnn34)[nH]2)c1` [Example 51, 8-bromo-N-{[5-(3-chlorophenyl)-4H-1,2,4-triazol-3-yl]methyl}-2-(morpholin-4-yl)pyrazolo[1,5-a][1,3,5]triazin-4-amine], on CDK12/CycK, the IC50 is 1730 nM. Also, the IC50 in experiment [1] is 9.43 nM. Also, in experiment [2], the DC50 came to 7.81 nM and the “(IC50 CDK12 high ATP) to (Degradation DC50 CDK12) ratio” value was 222.
For the molecule `CC(C)c1cnn2c(NCc3ncc(-c4ccccc4)[nH]3)nc(N3CCCCC3)nc12` [Example 36, N-[(5-phenyl-1H-imidazol-2-yl)methyl]-2-(piperidin-1-yl)-8-(propan-2-yl)pyrazolo[1,5-a][1,3,5]triazin-4-amine], on CDK12/CycK, the IC50 was above 20000 nM. In experiment [2], the DC50 was 86.5 nM and the “(IC50 CDK12 high ATP) to (Degradation DC50 CDK12) ratio” value was above 231.
As for `Fc1ccc(-c2nnc(CNc3nc(N4CCOCC4)nc4c(Br)cnn34)[nH]2)c(F)c1` [Example 41, 8-bromo-N-{[5-(2,4-difluorophenyl)-4H-1,2,4-triazol-3-yl]methyl}-2-(morpholin-4-yl)pyrazolo[1,5-a][1,3,5]triazin-4-amine], the IC50 at CDK12/CycK was above 5710 nM; in experiment [1] it was 11800 nM. The DC50 in experiment [2] was 4.06 nM.
Turning to `OC[C@H]1CCCCN1c1nc(NCc2nc3ccccc3[nH]2)n2ncc(Br)c2n1` [Example 60, [(2R)-1-(4-{[(1H-benzimidazol-2-yl)methyl]amino}-8-bromopyrazolo[1,5-a][1,3,5]triazin-2-yl)piperidin-2-yl]methanol], the IC50 at CDK12/CycK came to 1860 nM. The IC50 in experiment [1] worked out at 25.7 nM. For the same molecule, in experiment [2], the DC50 worked out at 9.25 nM and the “(IC50 CDK12 high ATP) to (Degradation DC50 CDK12) ratio” value came to 202.
As to `CC(C)c1cnn2c(NCc3nnc(-c4ccccc4)[nH]3)nc(N3CCN(C)CC3)nc12` [Example 37, 2-(4-methylpiperazin-1-yl)-N-[(5-phenyl-4H-1,2,4-triazol-3-yl)methyl]-8-(propan-2-yl)pyrazolo[1,5-a][1,3,5]triazin-4-amine], at CDK12/CycK, the IC50 is above 20000 nM. In experiment [2], the DC50 was found to be 42.8 nM and the “(IC50 CDK12 high ATP) to (Degradation DC50 CDK12) ratio” value was above 467.
